Results reported in US11046688B2, “Inhibitor compounds” (Cancer Research Technology Limited, priority 2012, dated 2021).

Target: full length MPS1 (Homo sapiens (Human), UniProt P33981)
Assay: Measurement of Inhibition of MPS1 Kinase (Caliper EZ reader, fluorescent labelled peptide H236)
Type: biochemical
Details: full length MPS1 12.5 nM or 3 nM, H236 peptide 5 μM, ATP 10 μM, 60 min at room temperature
Experimental: The reaction was carried out for 60 min at room temperature and stopped by the addition of buffer (10 μl) containing 20 mM EDTA, 0.05% (v/v) Brij-35, in 0.1M HEPES-buffered saline (Free acid, Sigma. UK). The plate was read on a Caliper EZ reader II (Caliper Life Sciences).
The % inhibition of the compounds is calculated relative to the means of selected control wells. […] The % inhibitions at each concentration are then fitted to a 4 parameter logistic fit: y=(a+((b−a)/(1+((c/x^d)))) where a=asym min, b=asym max, c=IC50 and d=hill coefficient

Chain of full length MPS1 (P33981 whole entry): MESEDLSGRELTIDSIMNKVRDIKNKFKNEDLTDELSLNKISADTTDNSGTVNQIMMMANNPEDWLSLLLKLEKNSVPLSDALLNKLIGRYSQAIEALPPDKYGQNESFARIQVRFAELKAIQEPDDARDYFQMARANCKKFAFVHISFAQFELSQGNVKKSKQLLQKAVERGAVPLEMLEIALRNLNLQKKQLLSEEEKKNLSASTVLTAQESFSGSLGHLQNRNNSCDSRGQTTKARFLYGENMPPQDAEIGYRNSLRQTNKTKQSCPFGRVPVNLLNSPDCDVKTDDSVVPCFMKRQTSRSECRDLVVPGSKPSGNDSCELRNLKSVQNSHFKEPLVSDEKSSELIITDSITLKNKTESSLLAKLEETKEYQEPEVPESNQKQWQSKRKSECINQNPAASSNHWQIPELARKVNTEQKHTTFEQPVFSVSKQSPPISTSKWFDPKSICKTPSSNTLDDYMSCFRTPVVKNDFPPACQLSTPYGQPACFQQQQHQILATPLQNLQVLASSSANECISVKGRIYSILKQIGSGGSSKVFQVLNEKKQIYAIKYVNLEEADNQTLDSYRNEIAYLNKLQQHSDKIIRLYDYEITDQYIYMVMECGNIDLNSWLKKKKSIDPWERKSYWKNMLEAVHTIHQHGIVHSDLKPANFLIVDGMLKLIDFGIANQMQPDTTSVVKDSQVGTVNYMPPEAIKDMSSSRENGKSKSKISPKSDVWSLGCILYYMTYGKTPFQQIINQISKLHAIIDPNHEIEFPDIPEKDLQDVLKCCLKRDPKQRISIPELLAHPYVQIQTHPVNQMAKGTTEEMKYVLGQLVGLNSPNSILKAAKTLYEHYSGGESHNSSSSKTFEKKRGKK

| SMILES | IC50 |
| --- | --- |
| COc1cc(-c2cn(C)nc2C)ccc1Nc1ncc2ccnc(NCC(C)(C)C)c2n1 [Example 48, N2-(4-(1,3-dimethyl-1H-pyrazol-4-yl)-2-methoxyphenyl)-N8-neopentylpyrido[3,4-d]pyrimidine-2,8-diamine] | 5 nM |
| COc1cc(-c2cnn(C)c2C)ccc1Nc1ncc2ccnc(NCC(C)(C)C)c2n1 [Example 49, N2-(4-(1,5-dimethyl-1H-pyrazol-4-yl)-2-methoxyphenyl)-N8-neopentylpyrido[3,4-d]pyrimidine-2,8-diamine] | 5 nM |
| COc1cc(-c2cnn(C)c2)ccc1Nc1ncc2c(C)cnc(NCC(C)(C)C)c2n1 [Example 149, N^2-(2-methoxy-4-(1-methyl-1H-pyrazol-4-yl)phenyl)-5-methyl-N^8-neopentylpyrido[3,4-d]pyrimidine-2,8-diamine] | 34 nM |
| COc1nc(-c2nnnn2C)ccc1Nc1ncc2ccnc(NCC(C)(C)OC)c2n1 [Example 161, N^8-(2-Methoxy-2-methylpropyl)-N^2-(2-methoxy-6-(1-methyl-1H-tetrazol-5-yl)pyridin-3-yl)pyrido[3,4-d]pyrimidine-2,8-diamine] | 31 nM |
